In US12465602B2, “Use of an opioid molecule for treating dry eye and eyes suffering from allergies” (H4 ORPHAN PHARMA, priority 2019, dated 2025):
Read-outs that look alike come from different tables or passages of the source.

Legend:
[1] = target: T1, non-mutated CFTR (Homo sapiens, UniProt P13569); assay: Ussing chamber short-circuit current on lacrimal gland epithelial cells expressing non-mutated CFTR; format: cell-based
T1 construct: endogenous in cells; host or cells: human glandular (lacrimal gland) epithelial cells, polarised on Snapwell filters
T1 sequence (P13569 whole entry, change not shown): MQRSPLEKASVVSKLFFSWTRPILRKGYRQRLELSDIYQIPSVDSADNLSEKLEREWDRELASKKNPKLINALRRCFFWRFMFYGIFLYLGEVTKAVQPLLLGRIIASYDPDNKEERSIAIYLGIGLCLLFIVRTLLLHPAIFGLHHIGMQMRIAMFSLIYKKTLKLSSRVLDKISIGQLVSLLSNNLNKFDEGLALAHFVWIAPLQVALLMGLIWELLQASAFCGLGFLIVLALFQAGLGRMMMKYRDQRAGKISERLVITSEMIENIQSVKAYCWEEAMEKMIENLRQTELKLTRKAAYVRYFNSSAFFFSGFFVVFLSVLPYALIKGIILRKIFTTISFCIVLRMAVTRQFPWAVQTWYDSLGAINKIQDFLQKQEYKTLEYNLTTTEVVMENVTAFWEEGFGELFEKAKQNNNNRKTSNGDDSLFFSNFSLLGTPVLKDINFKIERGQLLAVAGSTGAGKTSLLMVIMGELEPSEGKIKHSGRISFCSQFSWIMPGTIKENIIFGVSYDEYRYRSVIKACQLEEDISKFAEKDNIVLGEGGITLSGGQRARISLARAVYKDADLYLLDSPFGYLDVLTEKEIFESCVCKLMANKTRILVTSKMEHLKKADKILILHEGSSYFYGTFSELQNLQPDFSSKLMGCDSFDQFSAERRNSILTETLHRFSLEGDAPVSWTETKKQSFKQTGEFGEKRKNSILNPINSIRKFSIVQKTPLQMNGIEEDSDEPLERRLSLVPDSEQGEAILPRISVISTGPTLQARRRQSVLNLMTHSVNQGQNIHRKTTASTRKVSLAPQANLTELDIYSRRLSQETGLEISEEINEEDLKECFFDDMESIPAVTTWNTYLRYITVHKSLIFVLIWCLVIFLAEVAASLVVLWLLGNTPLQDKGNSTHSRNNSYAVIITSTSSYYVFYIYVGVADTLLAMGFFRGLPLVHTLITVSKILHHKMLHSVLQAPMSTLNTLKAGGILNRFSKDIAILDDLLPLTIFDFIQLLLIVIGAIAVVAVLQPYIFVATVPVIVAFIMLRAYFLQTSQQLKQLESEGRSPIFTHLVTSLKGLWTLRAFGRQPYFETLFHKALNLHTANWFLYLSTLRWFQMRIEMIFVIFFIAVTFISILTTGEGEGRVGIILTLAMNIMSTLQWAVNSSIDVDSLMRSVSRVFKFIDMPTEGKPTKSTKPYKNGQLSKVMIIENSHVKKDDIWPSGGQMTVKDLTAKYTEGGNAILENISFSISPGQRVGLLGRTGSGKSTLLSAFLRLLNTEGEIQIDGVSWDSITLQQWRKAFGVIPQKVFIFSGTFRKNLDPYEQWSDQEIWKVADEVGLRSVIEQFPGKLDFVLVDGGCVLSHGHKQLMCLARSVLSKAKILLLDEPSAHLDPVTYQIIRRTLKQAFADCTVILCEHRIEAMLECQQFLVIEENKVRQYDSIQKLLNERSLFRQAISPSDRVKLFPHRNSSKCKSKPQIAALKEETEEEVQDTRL
Excerpt: To study this action on the modulation of CFTR, the inventors have used the Ussing chamber method, invented by the Danish Hans H. Ussing at the end of the 1950s. This technique allows studying ionic exchanges through an epithelium, as they allow maintaining the tissue of interest in survival for a few hours under controlled conditions of temperature and medium. The positioning of the tissue between two half-chambers allows defining an apical compartment (corresponding to the lumen of the organ) and a basolateral compartment (corresponding to the blood compartment) and studying the exchanges between these two compartments via the tissue.
This technique is commonly used and it is particularly well-suited for a pharmacological approach of ionic transports and to search for molecules of therapeutic interest in the context of ionic secretions from epithelial cells. It consists in measuring the transepithelial current (called short-circuit and denoted Ise). Ise is expressed in amperes relative to the unit surface area of the epithelium (Ise in μA/cm2). The cells are cultured on a porous filter for 10 to 15 days at the liquid-liquid then air-liquid interface in order to mimic conditions close to in vivo. The transepithelial resistance is regularly measured during the culture. The higher this resistance (several hundred ohms), the more the epithelial tissue is contiguous, polarised and therefore tight. At the Air (apical side)—Liquid (basolateral side) interface, the epithelial cells polarise and form a tight mat that can be studied with the Ussing chamber technique. We have used a system with 6 vats from Physiologie Instrument@ enabling 6 experiments in parallel.
The inventors have prepared a 100 μM stock solution in DMSO.

[2] = tested on: basophils; assay: Basophil activation test (Flow CAST kit), CD63 expression by flow cytometry after anti-FcεRI stimulation; format: cell-based, human; conditions: noscapine 10 μM, whole blood, FIG. 9
Excerpt: These two cells intervene in the IgE-dependent allergic reaction; they express the high-affinity IgE receptor. Nevertheless, the mediators released by these cells during this activation are different for some of them. Moreover, basophils and especially mast cells intervene in innate immunity. Thus, basophils and mast cells have many characteristics in common and more particularly, the secretion of IL4 and IL13 which are known to induce the stimulation of collagen synthesis and the proliferation of fibroblasts responsible for fibrosis. Fibrosis can affect the Meibomian glands in dry eye and allergic eye. […]
It is designed for the in vitro diagnosis of the expression of the CD63 marker as a surface marker of activated basophils. The test is carried out on whole blood; flow cytometry allows quantifying the expression of CD63 at the surface of activated basophils. […]
This granularity may be due to irregularities inside or at the surface of the cells or to the density of the organelles that compose it (acess.ens-lyon.fr). Afterwards, fluorescence markers allow better characterising the different cell subpopulations (these markers are coupled with the differentiation clusters). […] The latter has been analysed in order to observe the expected results in the absence of stimulation and therefore of degranulation. […]

[3] = cited from earlier work

short-circuit current differential after addition of noscapine, apical side ([1]; 10 μM noscapine, non-mutated epithelial cells, apical side, switches from 16) | short-circuit current differential after addition of noscapine, second series ([1]; 10 μM noscapine, non-mutated lacrimal gland epithelial cells, printed apical side, switches from 6.5) | EC50 ([1]; apical pole, FIG. 2, read-out: EC50 activity for the apical pole) | EC50 ([1]; basal pole, FIG. 3, read-out: EC50 for the basal pole) | Structure (SMILES) | inhibition of basophil degranulation caused by anti-FcεRI antibody (CD63+ CCR3+) [2] | solubility in organic solvents ([3]; benzene and acetone) | solubility in water ([3]; water) | effect of Inh172 on cellular potential ([1]; Inh172 10 μM, first series (apical side)) | effect of Inh172 on cellular potential, second series ([1]; Inh172 10 μM, lacrimal gland epithelial cells)
more than 20 μA/cm2 | more than 7.5 μA/cm2 | 3.42 µM | 4.87 µM | COc1ccc2c(c1OC)C(=O)O[C@@H]2[C@H]1c2c(cc3c(c2OC)OCO3)CCN1C [noscapine, (3S)-6,7-dimethoxy-3-[(5R)-4-methoxy-6-methyl-7,8-dihydro-5H-[1,3]dioxolo[4,5-g]isoquinolin-5-yl]-3H-2-benzofuran-1-one] | blocks the activation of basophil degranulation | soluble in benzene and acetone | Insoluble in water |  | 
 |  |  |  | O=C(O)c1ccc(C=C2SC(=S)N(c3cccc(C(F)(F)F)c3)C2=O)cc1 [Inh172] |  |  |  | completely blocks the cellular potential | completely blocks the cellular potential
